Drawing on patent US10118902B2 (Sanford Burnham Prebys Medical Discovery Institute, priority 2014, dated 2018), this text covers EC50 for 25 compounds.

SMILES strings stand for the structures.

In this assay the target is neurotensin receptor 1 (NTR1) (Homo sapiens (Human), UniProt P30989). Kind of assay: NTR1 dose response, high-content imaging beta-arrestin-GFP assay in NTR1-U2OS cells. The format is cell-based. The settings on record: read-out: EC50.
neurotensin receptor 1 (NTR1), sequence (P30989 whole entry, species assumed): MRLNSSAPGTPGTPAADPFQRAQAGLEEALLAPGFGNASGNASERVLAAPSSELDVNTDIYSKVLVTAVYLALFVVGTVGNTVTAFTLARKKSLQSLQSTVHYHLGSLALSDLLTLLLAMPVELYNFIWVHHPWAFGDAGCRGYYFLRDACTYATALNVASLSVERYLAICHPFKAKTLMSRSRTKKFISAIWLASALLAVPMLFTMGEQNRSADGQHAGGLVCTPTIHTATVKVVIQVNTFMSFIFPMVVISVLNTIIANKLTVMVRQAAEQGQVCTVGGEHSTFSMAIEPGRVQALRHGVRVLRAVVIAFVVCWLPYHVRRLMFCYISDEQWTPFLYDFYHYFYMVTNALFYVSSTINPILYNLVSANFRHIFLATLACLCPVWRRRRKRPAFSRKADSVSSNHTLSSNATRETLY
Usually EC50 stands for the concentration at which the effect is half-maximal. On to `COc1ccccc1C1CCN(c2nc(C3CC3)nc3ccc(N4CC[C@H](O)C4)cc23)CC1` [Example 173, (S)-1-(2-cyclopropyl-4-(4-(2-methoxyphenyl)piperidin-1-yl)quinazolin-6-yl)pyrrolidin-3-ol], for which the EC50 was in the range of 500 to 2000 nM. Then `COc1ccccc1C1CCN(c2nc(C3CC3)nc3ccc(N4CC[C@H](OC)C4)cc23)CC1` [Example 174, (S)-2-cyclopropyl-4-(4-(2-methoxyphenyl)piperidin-1-yl)-6-(3-methoxypyrrolidin-1-yl)quinazoline], with 500 to 2000 nM. Turning to `COc1ccccc1C1CCN(c2nc(C3CC3)nc3ccc(N4CC[C@@H](O)C4)cc23)CC1` [Example 175, (R)-1-{2-cyclopropyl-4-[4-(2-methoxy-phenyl)-piperidin-1-yl]-quinazolin-6-yl}-pyrrolidin-3-ol], the EC50 was in the range of 500 to 2000 nM. `COc1ccccc1C1CCN(c2nc(C3CC3)nc3ccc(N4CC[C@@H](OC)C4)cc23)CC1` [Example 176, (R)-2-cyclopropyl-4-[4-(2-methoxy-phenyl)-piperidin-1-yl]-6-(3-methoxy-pyrrolidin-1-yl)-quinazoline]: the EC50 is 500 to 2000 nM. With `COc1ccccc1C1CCN(c2nc(C3(F)CC3)nc3ccc(N4CC[C@H](O)C4)cc23)CC1` [Example 177, (S)-1-{2-(1-Fluoro-cyclopropyl)-4-[4-(2-methoxy-phenyl)-piperidin-1-yl]-quinazolin-6-yl}-pyrrolidin-3-ol], the EC50 was 500 to 2000 nM. Under `COc1ccccc1C1CCN(c2nc(C3(F)CC3)nc3ccc(N4CC[C@@H](O)C4)cc23)CC1` [Example 178, (R)-1-{2-(1-Fluoro-cyclopropyl)-4-[4-(2-methoxy-phenyl)-piperidin-1-yl]-quinazolin-6-yl}-pyrrolidin-3-ol] stands 500 to 2000 nM; under `COc1ccccc1C1CCN(c2nc(C3CC3)nc3ccc(N(C)CC(=O)O)cc23)CC1` [Example 179, ({2-Cyclopropyl-4-[4-(2-methoxy-phenyl)-piperidin-1-yl]-quinazolin-6-yl}-methyl-amino)-acetic acid], below 500 nM; under `COc1ccccc1C1CCN(c2nc(C3(F)CC3)nc3ccc(N(C)CC(=O)O)cc23)CC1` [Example 180, 2-((2-(1-fluorocyclopropyl)-4-(4-(2-methoxyphenyl)piperidin-1-yl)quinazolin-6-yl)(methyl)amino)acetic acid], 2000 to 10000 nM. With `COc1ccccc1C1CCN(c2nc(C3(F)CCC3)nc3c(Cl)cc(N(C)CCO)cc23)CC1` [Example 181, 2-((8-chloro-2-(1-fluorocyclobutyl)-4-(4-(2-methoxyphenyl)piperidin-1-yl)quinazolin-6-yl)(methyl)amino)ethanol], the EC50 is 500 to 2000 nM. With `COc1ccccc1C1CCN(c2nc(C3(F)CCC3)nc3c(Cl)cc(N4CC[C@@H](O)C4)cc23)CC1` [Example 182], the EC50 lay in the range of 2000 to 10000 nM. Under `COc1ccccc1C1CCN(c2nc(C3(F)CCC3)nc3c(Cl)cc(N4CC[C@H](O)C4)cc23)CC1` [Example 183] stands 2000 to 10000 nM. Turning to `COC1CCCC1N1CCN(c2nc(C3CC3)nc3ccc(N(C)CCO)cc23)CC1` (stereo not shown) [Example 184, 2-({2-Cyclopropyl-4-[4-(2-methoxy-cyclopentyl)-piperazin-1-yl]-quinazolin-6-yl}-methyl-amino)-ethanol], the EC50 was above 10000 nM.

Regarding `CCCN(C)c1ccc2nc(C3CC3)nc(N3CCN(C4CCCC4OC)CC3)c2c1` (stereo not shown) [Example 185, 2-cyclopropyl-4-(4-(2-methoxycyclopentyl)piperazin-1-yl)-N-methyl-N-propylquinazolin-6-amine], the EC50 is above 10000 nM. Under `COC1CCCCC1C1CCN(c2nc(C3(F)CC3)nc3ccc(N(C)CCO)cc23)CC1` (stereo not shown) [Example 189, 2-({2-(1-Fluoro-cyclopropyl)-4-[4-(2-methoxy-cyclohexyl)-piperidin-1-yl]-quinazolin-6-yl}-methyl-amino)-ethanol] stands above 10000 nM; under `COc1ccsc1C1CCN(c2nc(C3CC3)nc3ccc(N(C)CCO)cc23)CC1` [Example 190, 2-({2-Cyclopropyl-4-[4-(3-methoxy-thiophen-2-yl)-piperidin-1-yl]-quinazolin-6-yl}-methyl-amino)-ethanol], 2000 to 10000 nM; under `COc1ccccc1C1CCN(c2nc(C#CC3CC3)nc3ccc(N(C)CCO)cc23)CC1` [Example 191, 2-({2-Cyclopropylethynyl-4-[4-(2-methoxy-phenyl)-piperidin-1-yl]-quinazolin-6-yl}-methyl-amino)-ethanol], 2000 to 10000 nM. With `COc1ccccc1C1CCN(c2nc(OC3CCC3)nc3ccc(N(C)CCO)cc23)CC1` [Example 193, 2-((2-cyclobutoxy-4-(4-(2-methoxyphenyl)piperidin-1-yl)quinazolin-6-yl)(methyl)amino)ethanol], the EC50 was in the range of 500 to 2000 nM. In the case of `COc1ccccc1C1CCN(c2nc(C3CC3)nc3cnc(N(C)CCN4CCOCC4)cc23)CC1` [Example 194, 2-cyclopropyl-4-(4-(2-methoxyphenyl)piperidin-1-yl)-N-methyl-N-(2-morpholinoethyl)pyrido[3,4-d]pyrimidin-6-amine], the EC50 lay within 500 to 2000 nM. Under `COc1ccccc1C1CCN(c2nc(C3(F)CC3)nc3cnc(N(C)CCO)cc23)CC1` [Example 195, 2-({2-(1-Fluoro-cyclopropyl)-4-[4-(2-methoxy-phenyl)-piperidin-1-yl]-pyrido[3,4-d]pyrimidin-6-yl}-methyl-amino)-ethanol] stands below 500 nM. For `COc1ccccc1C1CCN(c2nc(C3(F)CC3)nc3cnc(N4CC[C@H](O)C4)cc23)CC1` [Example 196, 1-{2-(1-Fluoro-cyclopropyl)-4-[4-(2-methoxy-phenyl)-piperidin-1-yl]-pyrido[3,4-d]pyrimidin-6-yl}-pyrrolidin-3-ol], the EC50 lay within 500 to 2000 nM.

`COc1ccccc1C1CCN(c2nc(C3(F)CC3)nc3cnc(N4CC[C@@H](O)C4)cc23)CC1` [Example 197, 1-{2-(1-Fluoro-cyclopropyl)-4-[4-(2-methoxy-phenyl)-piperidin-1-yl]-pyrido[3,4-d]pyrimidin-6-yl}-pyrrolidin-3-ol]: the EC50 lay in the range of 500 to 2000 nM. Consider `COc1ccccc1C1CCN(c2nc(C3(F)CCC3)nc3cnc(N(C)CCO)cc23)CC1` [Example 198, 2-({2-(1-Fluoro-cyclobutyl)-4-[4-(2-methoxy-phenyl)-piperidin-1-yl]-pyrido[3,4-d]pyrimidin-6-yl}-methyl-amino)-ethanol], for which the EC50 was in the range of 2000 to 10000 nM.

In the case of `COc1ccccc1C1CCN(c2nc(C3(F)CCC3)nc3cnc(N4CC[C@@H](O)C4)cc23)CC1` [Example 199, 1-{2-(1-Fluoro-cyclobutyl)-4-[4-(2-methoxy-phenyl)-piperidin-1-yl]-pyrido[3,4-d]pyrimidin-6-yl}-pyrrolidin-3-ol], the EC50 lay within 2000 to 10000 nM.

Turning to `COc1ccccc1C1CCN(c2nc(C3(F)CCC3)nc3cnc(N4CC[C@H](O)C4)cc23)CC1` [Example 200, 1-{2-(1-Fluoro-cyclobutyl)-4-[4-(2-methoxy-phenyl)-piperidin-1-yl]-pyrido[3,4-d]pyrimidin-6-yl}-pyrrolidin-3-ol], the EC50 fell in the range of 2000 to 10000 nM. Under `COc1ccccc1C1CCN(c2nc(C3(F)CC3)nc3c(Cl)cc(N(C)CCO)cc23)CC1` [Example 201, 2-({8-Chloro-2-(1-fluoro-cyclopropyl)-4-[4-(2-methoxy-phenyl)-piperidin-1-yl]-quinazolin-6-yl}-methyl-amino)-ethanol] stands below 500 nM.
